Tests used:
Experiment in all cases: KINOMEscan
Format in all cases: binding
NEK9 = target: T1, NEK9 (Homo sapiens, UniProt Q8TD19); conditions: NEK9, 1 uM
T1 construct: purchased Ambit KINOMEscan (DiscoverX)
Outline: (§1)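 Compounds were each tested at a single concentration of 1 μM in a binding-based kinase panel.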

DDR2 = target: T2, DDR2 (Homo sapiens, UniProt Q16832); conditions: DDR2, 1 uM
T2 construct: purchased Ambit KINOMEscan (DiscoverX)
Outline: as §1

GSK3B = target: T3, GSK3B (Homo sapiens, UniProt P49841); conditions: for % binding compared to no inhibitor control: GSK3B, 1 uM
T3 construct: purchased Ambit KINOMEscan (DiscoverX)
Outline: as §1

CAMKK1 = target: T4, CAMKK1 (Homo sapiens, UniProt Q8N5S9); conditions: CAMKK1, 1 uM
T4 construct: purchased Ambit KINOMEscan (DiscoverX)
Outline: as §1

STK36 = target: T5, STK36 (Homo sapiens, UniProt Q9NRP7); conditions: STK36, 1 uM
T5 construct: purchased Ambit KINOMEscan (DiscoverX)
Outline: as §1

AKT2 = target: T6, AKT2 (Homo sapiens, UniProt P31751); conditions: AKT2, 1 uM
T6 construct: purchased Ambit KINOMEscan (DiscoverX)
Outline: as §1

DCAMKL3 = target: T7, DCAMKL3 (Homo sapiens, UniProt Q9C098); conditions: DCAMKL3, 1 uM
T7 construct: purchased Ambit KINOMEscan (DiscoverX)
Outline: as §1

ICK = target: T8, ICK (Homo sapiens, UniProt Q9UPZ9); conditions: 1 uM
T8 construct: purchased Ambit KINOMEscan (DiscoverX)
Outline: as §1

MARK1 = target: T9, MARK1 (Homo sapiens, UniProt Q9P0L2); conditions: MARK1, 1 uM
T9 construct: purchased Ambit KINOMEscan (DiscoverX)
Outline: as §1

PAK3 = target: T10, PAK3 (Homo sapiens, UniProt O75914); conditions: PAK3, 1 uM
T10 construct: purchased Ambit KINOMEscan (DiscoverX)
Outline: as §1

STK33 = target: T11, STK33 (Homo sapiens, UniProt Q9BYT3); conditions: STK33, 1 uM
T11 construct: purchased Ambit KINOMEscan (DiscoverX)
Outline: as §1

YSK1 = target: T12, YSK1 (Homo sapiens, UniProt O00506); conditions: YSK1, 1 uM
T12 construct: purchased Ambit KINOMEscan (DiscoverX)
Outline: as §1

PIM3 = target: T13, PIM3 (Homo sapiens, UniProt Q86V86); conditions: PIM3, 1 uM
T13 construct: purchased Ambit KINOMEscan (DiscoverX)
Outline: as §1

CSNK2A2 = target: T14, CSNK2A2 (Homo sapiens, UniProt P19784); conditions: CSNK2A2, 1 uM
T14 construct: purchased Ambit KINOMEscan (DiscoverX)
Outline: as §1

CDC2L2 = target: T15, CDC2L2 (Homo sapiens, UniProt Q9UQ88); conditions: CDC2L2, 1 uM
T15 construct: purchased Ambit KINOMEscan (DiscoverX)
Outline: as §1

MET(Y1235D) = target: T16, MET(Y1235D) (Homo sapiens, UniProt P08581, Y1235D); conditions: 1 uM
T16 construct: purchased Ambit KINOMEscan (DiscoverX)
Outline: as §1

MET = target: T17, MET (Homo sapiens, UniProt P08581); conditions: 1 uM
T17 construct: purchased Ambit KINOMEscan (DiscoverX)
Outline: as §1

PIK3C2G = target: T18, PIK3C2G (Homo sapiens, UniProt O75747); conditions: 1 uM
T18 construct: purchased Ambit KINOMEscan (DiscoverX)
Outline: as §1

DDR1 = target: T19, DDR1 (Homo sapiens, UniProt Q08345); conditions: DDR1, 1 uM
T19 construct: purchased Ambit KINOMEscan (DiscoverX)
Outline: as §1

MARK3 = target: T20, MARK3 (Homo sapiens, UniProt P27448); conditions: MARK3, 1 uM
T20 construct: purchased Ambit KINOMEscan (DiscoverX)
Outline: as §1

RIPK1 = target: T21, RIPK1 (Homo sapiens, UniProt Q13546); conditions: RIPK1, 1 uM
T21 construct: purchased Ambit KINOMEscan (DiscoverX)
Outline: as §1

MAPKAPK5 = target: T22, MAPKAPK5 (Homo sapiens, UniProt Q8IW41); conditions: MAPKAPK5, 1 uM
T22 construct: purchased Ambit KINOMEscan (DiscoverX)
Outline: as §1

ALK = target: T23, ALK (Homo sapiens, UniProt Q9UM73); conditions: 1 uM
T23 construct: purchased Ambit KINOMEscan (DiscoverX)
Outline: as §1

STK16 = target: T24, STK16 (Homo sapiens, UniProt O75716); conditions: STK16, 1 uM
T24 construct: purchased Ambit KINOMEscan (DiscoverX)
Outline: as §1

EPHB6 = target: T25, EPHB6 (Homo sapiens, UniProt O15197); conditions: EPHB6, 1 uM
T25 construct: purchased Ambit KINOMEscan (DiscoverX)
Outline: as §1

AURKB = target: T26, AURKB (Homo sapiens, UniProt Q96GD4); conditions: 1 uM
T26 construct: purchased Ambit KINOMEscan (DiscoverX)
Outline: as §1

ULK2 = target: T27, ULK2 (Homo sapiens, UniProt Q8IYT8); conditions: ULK2, 1 uM
T27 construct: purchased Ambit KINOMEscan (DiscoverX)
Outline: as §1

ROCK1 = target: T28, ROCK1 (Homo sapiens, UniProt Q13464); conditions: for % binding compared to no inhibitor control: ROCK1, 1 uM
T28 construct: purchased Ambit KINOMEscan (DiscoverX)
Outline: as §1

ERK2 = target: T29, ERK2 (Homo sapiens, UniProt P28482); conditions: ERK2, 1 uM
T29 construct: purchased Ambit KINOMEscan (DiscoverX)
Outline: as §1

PRKX = target: T30, PRKX (Homo sapiens, UniProt P51817); conditions: 1 uM
T30 construct: purchased Ambit KINOMEscan (DiscoverX)
Outline: as §1

[1] = target: T31, JAK1(JH1domain-catalytic) (Homo sapiens, UniProt P23458); conditions: 1 uM
T31 construct: JAK1(JH1domain-catalytic); purchased Ambit KINOMEscan (DiscoverX)
Outline: as §1

ERN1 = target: T32, ERN1 (Homo sapiens, UniProt O75460); conditions: ERN1, 1 uM
T32 construct: purchased Ambit KINOMEscan (DiscoverX)
Outline: as §1

PIK3CA(E545K) = target: T33, PIK3CA(E545K) (Homo sapiens, UniProt P42336, E545K); conditions: 1 uM
T33 construct: purchased Ambit KINOMEscan (DiscoverX)
Outline: as §1

DLK = target: T34, DLK (Homo sapiens, UniProt Q12852); conditions: 1 uM
T34 construct: purchased Ambit KINOMEscan (DiscoverX)
Outline: as §1

PAK2 = target: T35, PAK2 (Homo sapiens, UniProt Q13177); conditions: PAK2, 1 uM
T35 construct: purchased Ambit KINOMEscan (DiscoverX)
Outline: as §1

GSK3A = target: T36, GSK3A (Homo sapiens, UniProt P49840); conditions: for % binding compared to no inhibitor control: GSK3A, 1 uM
T36 construct: purchased Ambit KINOMEscan (DiscoverX)
Outline: as §1

CHEK2 = target: T37, CHEK2 (Homo sapiens, UniProt O96017); conditions: CHEK2, 1 uM
T37 construct: purchased Ambit KINOMEscan (DiscoverX)
Outline: as §1

CLK2 = target: T38, CLK2 (Homo sapiens, UniProt P49760); conditions: CLK2, 1 uM
T38 construct: purchased Ambit KINOMEscan (DiscoverX)
Outline: as §1

PIK3CA(Q546K) = target: T39, PIK3CA(Q546K) (Homo sapiens, UniProt P42336, Q546K); conditions: 1 uM
T39 construct: purchased Ambit KINOMEscan (DiscoverX)
Outline: as §1

T28 sequence (Q13464 whole entry): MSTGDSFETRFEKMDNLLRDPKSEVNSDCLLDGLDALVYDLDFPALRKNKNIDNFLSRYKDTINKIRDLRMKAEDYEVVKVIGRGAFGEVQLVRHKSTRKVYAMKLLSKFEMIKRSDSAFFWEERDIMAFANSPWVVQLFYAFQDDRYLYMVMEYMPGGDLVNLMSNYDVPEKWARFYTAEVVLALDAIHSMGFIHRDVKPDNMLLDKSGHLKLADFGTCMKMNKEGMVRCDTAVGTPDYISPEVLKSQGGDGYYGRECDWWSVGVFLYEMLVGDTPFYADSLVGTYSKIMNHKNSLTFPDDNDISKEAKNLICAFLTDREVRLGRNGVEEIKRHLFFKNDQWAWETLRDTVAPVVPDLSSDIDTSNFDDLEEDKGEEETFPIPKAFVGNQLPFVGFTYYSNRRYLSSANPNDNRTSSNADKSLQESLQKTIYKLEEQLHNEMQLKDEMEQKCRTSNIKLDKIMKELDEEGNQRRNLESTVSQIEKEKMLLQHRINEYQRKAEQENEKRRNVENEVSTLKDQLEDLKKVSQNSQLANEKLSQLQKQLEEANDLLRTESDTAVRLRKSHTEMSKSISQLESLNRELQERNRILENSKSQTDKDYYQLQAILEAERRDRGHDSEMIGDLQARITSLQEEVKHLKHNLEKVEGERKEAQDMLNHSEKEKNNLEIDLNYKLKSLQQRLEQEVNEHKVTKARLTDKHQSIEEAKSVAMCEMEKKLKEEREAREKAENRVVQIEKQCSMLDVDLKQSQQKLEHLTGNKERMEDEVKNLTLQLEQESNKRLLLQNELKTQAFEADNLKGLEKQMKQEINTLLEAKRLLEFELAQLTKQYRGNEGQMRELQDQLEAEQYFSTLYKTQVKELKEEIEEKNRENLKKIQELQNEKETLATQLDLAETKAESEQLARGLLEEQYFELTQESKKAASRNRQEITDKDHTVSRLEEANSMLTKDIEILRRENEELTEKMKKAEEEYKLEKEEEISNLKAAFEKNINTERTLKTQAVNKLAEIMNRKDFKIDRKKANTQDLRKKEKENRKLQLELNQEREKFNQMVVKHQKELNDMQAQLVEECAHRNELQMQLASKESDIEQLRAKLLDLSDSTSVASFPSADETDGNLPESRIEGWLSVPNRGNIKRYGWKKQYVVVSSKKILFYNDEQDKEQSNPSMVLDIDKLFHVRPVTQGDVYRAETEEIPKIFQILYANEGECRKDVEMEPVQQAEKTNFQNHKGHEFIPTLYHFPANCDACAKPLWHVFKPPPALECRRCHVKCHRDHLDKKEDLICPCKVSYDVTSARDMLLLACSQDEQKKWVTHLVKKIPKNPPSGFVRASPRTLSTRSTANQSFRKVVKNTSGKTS
T36 sequence (P49840 whole entry): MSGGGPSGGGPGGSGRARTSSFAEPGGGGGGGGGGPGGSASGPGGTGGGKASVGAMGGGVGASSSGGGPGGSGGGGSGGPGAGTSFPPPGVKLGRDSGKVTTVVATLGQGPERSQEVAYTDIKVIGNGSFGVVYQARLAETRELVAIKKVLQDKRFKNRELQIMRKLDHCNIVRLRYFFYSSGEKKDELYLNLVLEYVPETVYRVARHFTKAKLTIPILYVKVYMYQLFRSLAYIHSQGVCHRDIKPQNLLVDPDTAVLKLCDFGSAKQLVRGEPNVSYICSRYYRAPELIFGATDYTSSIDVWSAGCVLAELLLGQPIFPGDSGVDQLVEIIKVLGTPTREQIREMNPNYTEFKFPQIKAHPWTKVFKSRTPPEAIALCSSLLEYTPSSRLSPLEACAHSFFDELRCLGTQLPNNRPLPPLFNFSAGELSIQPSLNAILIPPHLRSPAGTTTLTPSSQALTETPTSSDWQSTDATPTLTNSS
T3 sequence (P49841 whole entry): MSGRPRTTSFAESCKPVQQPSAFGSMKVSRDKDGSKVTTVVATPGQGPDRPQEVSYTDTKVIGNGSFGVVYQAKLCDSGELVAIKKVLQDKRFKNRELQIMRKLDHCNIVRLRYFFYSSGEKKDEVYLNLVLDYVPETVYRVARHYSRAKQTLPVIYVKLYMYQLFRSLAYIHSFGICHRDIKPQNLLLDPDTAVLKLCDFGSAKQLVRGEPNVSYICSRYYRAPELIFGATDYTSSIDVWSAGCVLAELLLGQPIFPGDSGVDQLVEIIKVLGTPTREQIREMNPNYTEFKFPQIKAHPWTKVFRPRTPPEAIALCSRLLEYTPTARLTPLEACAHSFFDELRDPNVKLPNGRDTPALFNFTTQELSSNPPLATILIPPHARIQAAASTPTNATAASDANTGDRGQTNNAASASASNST
T33 sequence (P42336 whole entry E545K): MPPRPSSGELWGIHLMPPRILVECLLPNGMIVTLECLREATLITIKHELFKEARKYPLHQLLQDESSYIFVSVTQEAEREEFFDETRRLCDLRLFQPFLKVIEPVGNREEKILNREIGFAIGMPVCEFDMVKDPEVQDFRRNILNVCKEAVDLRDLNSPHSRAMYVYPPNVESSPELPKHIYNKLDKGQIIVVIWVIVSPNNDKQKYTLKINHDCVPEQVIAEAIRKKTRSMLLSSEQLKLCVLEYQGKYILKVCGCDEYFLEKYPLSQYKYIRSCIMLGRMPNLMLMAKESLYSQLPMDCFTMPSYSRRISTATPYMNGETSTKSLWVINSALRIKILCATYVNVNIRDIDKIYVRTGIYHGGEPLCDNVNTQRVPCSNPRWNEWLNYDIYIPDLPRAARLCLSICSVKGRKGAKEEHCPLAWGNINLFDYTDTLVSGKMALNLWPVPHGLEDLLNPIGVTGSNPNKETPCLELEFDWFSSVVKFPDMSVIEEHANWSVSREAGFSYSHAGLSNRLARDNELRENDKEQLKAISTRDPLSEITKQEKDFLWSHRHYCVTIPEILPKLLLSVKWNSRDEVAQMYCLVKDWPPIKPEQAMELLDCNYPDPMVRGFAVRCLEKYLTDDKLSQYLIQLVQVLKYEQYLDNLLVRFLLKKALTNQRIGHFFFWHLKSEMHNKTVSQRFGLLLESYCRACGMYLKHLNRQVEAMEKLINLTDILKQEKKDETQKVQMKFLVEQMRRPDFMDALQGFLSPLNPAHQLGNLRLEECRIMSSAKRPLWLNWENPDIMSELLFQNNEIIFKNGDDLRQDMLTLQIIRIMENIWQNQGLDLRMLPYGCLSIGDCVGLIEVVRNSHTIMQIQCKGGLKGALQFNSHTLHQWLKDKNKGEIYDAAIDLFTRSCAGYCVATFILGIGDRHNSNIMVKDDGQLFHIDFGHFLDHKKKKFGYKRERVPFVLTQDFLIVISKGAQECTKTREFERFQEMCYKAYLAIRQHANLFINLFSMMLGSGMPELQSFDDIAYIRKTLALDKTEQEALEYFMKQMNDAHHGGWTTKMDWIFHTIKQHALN
T8 sequence (Q9UPZ9 whole entry): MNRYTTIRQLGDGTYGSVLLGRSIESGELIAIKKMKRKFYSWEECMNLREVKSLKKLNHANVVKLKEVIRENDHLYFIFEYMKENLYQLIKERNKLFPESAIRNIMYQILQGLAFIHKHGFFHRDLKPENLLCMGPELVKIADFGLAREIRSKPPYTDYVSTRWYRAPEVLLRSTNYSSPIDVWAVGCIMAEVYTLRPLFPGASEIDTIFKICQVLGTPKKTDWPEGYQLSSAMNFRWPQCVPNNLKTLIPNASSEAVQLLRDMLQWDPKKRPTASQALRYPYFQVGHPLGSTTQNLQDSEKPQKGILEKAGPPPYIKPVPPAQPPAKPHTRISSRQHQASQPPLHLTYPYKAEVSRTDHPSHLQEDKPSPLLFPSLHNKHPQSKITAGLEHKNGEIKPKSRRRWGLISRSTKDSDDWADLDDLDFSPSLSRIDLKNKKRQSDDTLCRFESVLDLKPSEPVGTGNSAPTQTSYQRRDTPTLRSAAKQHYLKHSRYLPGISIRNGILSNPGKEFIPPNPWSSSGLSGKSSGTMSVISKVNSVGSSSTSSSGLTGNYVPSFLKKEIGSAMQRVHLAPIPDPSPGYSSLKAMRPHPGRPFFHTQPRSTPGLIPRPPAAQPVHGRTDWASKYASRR
T32 sequence (O75460 19-977): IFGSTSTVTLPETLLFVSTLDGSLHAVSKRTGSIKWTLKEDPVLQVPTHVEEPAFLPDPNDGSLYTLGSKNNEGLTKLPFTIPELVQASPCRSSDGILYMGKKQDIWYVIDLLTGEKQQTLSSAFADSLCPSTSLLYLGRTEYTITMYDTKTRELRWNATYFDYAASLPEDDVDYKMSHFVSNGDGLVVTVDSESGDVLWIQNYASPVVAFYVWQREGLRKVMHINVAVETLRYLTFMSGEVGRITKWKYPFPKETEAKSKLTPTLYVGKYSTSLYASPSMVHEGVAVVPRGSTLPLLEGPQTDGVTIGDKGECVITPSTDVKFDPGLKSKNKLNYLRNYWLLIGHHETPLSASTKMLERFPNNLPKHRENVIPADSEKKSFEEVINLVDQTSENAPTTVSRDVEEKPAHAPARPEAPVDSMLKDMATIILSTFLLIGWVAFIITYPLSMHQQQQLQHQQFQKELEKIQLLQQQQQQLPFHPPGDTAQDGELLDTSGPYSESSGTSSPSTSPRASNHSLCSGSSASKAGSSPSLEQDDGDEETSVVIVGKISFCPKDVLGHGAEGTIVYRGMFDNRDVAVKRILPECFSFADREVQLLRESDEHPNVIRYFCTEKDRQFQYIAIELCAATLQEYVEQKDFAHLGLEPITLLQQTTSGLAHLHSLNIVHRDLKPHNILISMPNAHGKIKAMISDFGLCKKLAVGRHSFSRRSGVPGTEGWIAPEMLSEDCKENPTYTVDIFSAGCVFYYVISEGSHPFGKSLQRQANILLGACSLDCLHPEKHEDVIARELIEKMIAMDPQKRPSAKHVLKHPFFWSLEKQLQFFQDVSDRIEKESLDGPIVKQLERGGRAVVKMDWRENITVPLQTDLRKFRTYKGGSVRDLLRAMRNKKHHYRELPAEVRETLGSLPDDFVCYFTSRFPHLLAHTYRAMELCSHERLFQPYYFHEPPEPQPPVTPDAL
T39 sequence (P42336 whole entry Q546K): as the sequence (P42336 whole entry E545K) above, with K545E, Q546K counted along it

Compound: COc1ccc(-c2cc3nccn3c(Nc3ncccc3C(N)=O)n2)cc1OC.Cl.Cl [BAY61-3606, 2-[7-(3,4-dimethoxyphenyl)-imidazo [1,2-c]pyrimidin-5-ylamino] nicotinamide dihydrochloride, reference compound]
- % binding compared to no inhibitor control (NEK9): 90%
- % binding compared to no inhibitor control (DDR2): 74%
- % binding compared to no inhibitor control (GSK3B): 39%
- % inhibition ATP binding (GSK3B; GSK3β, KINOMEscan, 1 μM): 61%
- % binding compared to no inhibitor control (CAMKK1): 48%
- % binding compared to no inhibitor control (STK36): 74%
- % binding compared to no inhibitor control (AKT2): 79%
- % binding compared to no inhibitor control (DCAMKL3): 100%
- % binding compared to no inhibitor control (ICK): 23%
- % binding compared to no inhibitor control (MARK1): 100%
- % binding compared to no inhibitor control (PAK3): 92%
- % binding compared to no inhibitor control (STK33): 87%
- % binding compared to no inhibitor control (YSK1): 53%
- % binding compared to no inhibitor control (PIM3): 81%
- % binding compared to no inhibitor control (CSNK2A2): 54%
- % binding compared to no inhibitor control (CDC2L2): 100%
- % binding compared to no inhibitor control (MET(Y1235D)): 100%
- % binding compared to no inhibitor control (MET): 100%
- % binding compared to no inhibitor control (PIK3C2G): 23%
- % binding compared to no inhibitor control (DDR1): 99%
- % binding compared to no inhibitor control (MARK3): 100%
- % binding compared to no inhibitor control (RIPK1): 86%
- % binding compared to no inhibitor control (MAPKAPK5): 100%
- % binding compared to no inhibitor control (ALK): 84%
- % binding compared to no inhibitor control (STK16): 30%
- % binding compared to no inhibitor control (EPHB6): 17%
- % binding compared to no inhibitor control (AURKB): 69%
- % binding compared to no inhibitor control (ULK2): 69%
- % binding compared to no inhibitor control (ROCK1): 3.2%
- % inhibition ATP binding (ROCK1; ROCK1, KINOMEscan, 1 μM): 96.8%
- % binding compared to no inhibitor control (ERK2): 68%
- % binding compared to no inhibitor control (PRKX): 75%
- % binding compared to no inhibitor control [1]: 71%
- % binding compared to no inhibitor control (ERN1): 72%
- % binding compared to no inhibitor control (PIK3CA(E545K)): 100%
- % binding compared to no inhibitor control (DLK): 87%
- % binding compared to no inhibitor control (PAK2): 80%
- % binding compared to no inhibitor control (GSK3A): 17%
- % inhibition ATP binding (GSK3A; GSK3α, KINOMEscan, 1 μM): 83%
- % binding compared to no inhibitor control (CHEK2): 100%
- % binding compared to no inhibitor control (CLK2): 12%
- % binding compared to no inhibitor control (PIK3CA(Q546K)): 87%

Compound: COc1ccccc1Nc1nc(-c2ccc(OC)c(OC)c2)cc2nccn12 [BAY derivative 6]
- % binding compared to no inhibitor control (NEK9): 100%
- % binding compared to no inhibitor control (DDR2): 100%
- % binding compared to no inhibitor control (GSK3B): 100%
- % binding compared to no inhibitor control (CAMKK1): 100%
- % binding compared to no inhibitor control (STK36): 100%
- % binding compared to no inhibitor control (AKT2): 100%
- % binding compared to no inhibitor control (DCAMKL3): 100%
- % binding compared to no inhibitor control (ICK): 100%
- % binding compared to no inhibitor control (MARK1): 100%
- % binding compared to no inhibitor control (PAK3): 100%
- % binding compared to no inhibitor control (STK33): 100%
- % binding compared to no inhibitor control (YSK1): 82%
- % binding compared to no inhibitor control (PIM3): 82%
- % binding compared to no inhibitor control (CSNK2A2): 100%
- % binding compared to no inhibitor control (CDC2L2): 100%
- % binding compared to no inhibitor control (MET(Y1235D)): 100%
- % binding compared to no inhibitor control (MET): 100%
- % binding compared to no inhibitor control (PIK3C2G): 100%
- % binding compared to no inhibitor control (DDR1): 100%
- % binding compared to no inhibitor control (MARK3): 100%
- % binding compared to no inhibitor control (RIPK1): 100%
- % binding compared to no inhibitor control (MAPKAPK5): 100%
- % binding compared to no inhibitor control (ALK): 52%
- % binding compared to no inhibitor control (STK16): 47%
- % binding compared to no inhibitor control (EPHB6): 56%
- % binding compared to no inhibitor control (AURKB): 68%
- % binding compared to no inhibitor control (ULK2): 86%
- % binding compared to no inhibitor control (ROCK1): 81%
- % binding compared to no inhibitor control (ERK2): 70%
- % binding compared to no inhibitor control (PRKX): 73%
- % binding compared to no inhibitor control [1]: 48%
- % binding compared to no inhibitor control (ERN1): 100%
- % binding compared to no inhibitor control (PIK3CA(E545K)): 100%
- % binding compared to no inhibitor control (DLK): 100%
- % binding compared to no inhibitor control (PAK2): 76%
- % binding compared to no inhibitor control (GSK3A): 100%
- % binding compared to no inhibitor control (CHEK2): 97%
- % binding compared to no inhibitor control (CLK2): 63%
- % binding compared to no inhibitor control (PIK3CA(Q546K)): 100%
